Reference: ChEMBL document CHEMBL4118193, “1,2,3,4,6-Penta-O-galloyl-β-d-glucose suppresses colon cancer through induction of tumor suppressor” (Bioorg Med Chem Lett, 2018)
Activity calls are given as the source filed them. No cut-off for these calls is given here.

Experiments:
[1] = tested on: HT-29; assay: Cell cycle arrest in human HT-29 cells assessed as accumulation at G0/G1 phase at 5 uM after 48 hrs (reference value: 53.9%); assay type: functional
[2] = tested on: HCT-116; assay: Cell cycle arrest in human HCT116 cells assessed as accumulation at G2/M phase at 10 uM after 48 hrs (reference value: 21.5%); assay type: functional
[3] = tested on: HCT-116; assay: Cell cycle arrest in human HCT116 cells assessed as accumulation at G2/M phase at 1 uM after 48 hrs (reference value: 21.5%); assay type: functional
[4] = tested on: HCT-116; assay: Induction of apoptosis in human HCT116 cells assessed as Bcl-2 protein level at 5 uM after 48 hrs by Western blot method relative to beta-actin; assay type: functional
[5] = tested on: HCT-116; assay: Induction of apoptosis in human HCT116 cells assessed as p53 protein level at 1 uM after 48 hrs by Western blot method relative to beta-actin; assay type: functional
[6] = tested on: HCT-116; assay: Cell cycle arrest in human HCT116 cells assessed as accumulation at subG1 phase after 48 hrs; assay type: functional, cell-based
[7] = tested on: HT-29; assay: Cell cycle arrest in human HT-29 cells assessed as accumulation at G0/G1 phase at 10 uM after 48 hrs (reference value: 53.9%); assay type: functional
[8] = tested on: HCT-116; assay: Induction of apoptosis in human HCT116 cells assessed as caspase-3 protein level at 10 uM after 48 hrs by Western blot method relative to beta-actin; assay type: functional
[9] = tested on: HT-29; assay: Induction of apoptosis in human HT-29 cells assessed as Bcl-2 protein level at 5 uM after 48 hrs by Western blot method relative to beta-actin; assay type: functional
[10] = tested on: HCT-116; assay: Induction of apoptosis in human HCT116 cells assessed as cyclin E protein level at 1 uM after 48 hrs by Western blot method relative to beta-actin; assay type: functional
[11] = tested on: HCT-116; assay: Induction of apoptosis in human HCT116 cells assessed as in p53 protein level at 5 uM after 48 hrs by Western blot method relative to beta-actin; assay type: functional
[12] = tested on: HCT-116; assay: Induction of apoptosis in human HCT116 cells assessed as cleaved caspase-3 protein level at 2.5 uM after 48 hrs by Western blot method relative to caspase-3; assay type: functional
[13] = tested on: HCT-116; assay: Induction of apoptosis in human HCT116 cells assessed as cleaved caspase-3 protein level at 10 uM after 48 hrs by Western blot method relative to caspase-3; assay type: functional
[14] = tested on: HCT-116; assay: Cytotoxicity against human HCT116 cells at 10 uM after 48 hrs by CytoTox-96 non-radioactive assay; assay type: functional, cell-based
[15] = tested on: HT-29; assay: Induction of apoptosis in human HT-29 cells assessed as p21 protein level at 2.5 uM after 48 hrs by Western blot method relative to beta-actin; assay type: functional
[16] = tested on: HCT-116; assay: Induction of apoptosis in human HCT116 cells assessed as cleaved caspase-3 protein level at 5 uM after 48 hrs by Western blot method relative to caspase-3; assay type: functional
[17] = tested on: HCT-116; assay: Induction of apoptosis in human HCT116 cells assessed as in p21 protein level at 5 uM after 48 hrs by Western blot method relative to beta-actin; assay type: functional
[18] = tested on: HT-29; assay: Cytotoxicity against human HT-29 cells at 10 uM after 48 hrs by CytoTox-96 non-radioactive assay; assay type: functional, cell-based
[19] = tested on: HCT-116; assay: Cell cycle arrest in human HCT116 cells assessed as accumulation at G0/G1 phase at 1 uM after 48 hrs (reference value: 38.5%); assay type: functional
[20] = tested on: HCT-116; assay: Induction of apoptosis in human HCT116 cells assessed as in p53 protein level at 2.5 uM after 48 hrs by Western blot method relative to beta-actin; assay type: functional
[21] = tested on: HT-29; assay: Induction of apoptosis in human HT-29 cells assessed as CDK2 protein level at 5 uM after 48 hrs by Western blot method relative to beta-actin; assay type: functional
[22] = tested on: HT-29; assay: Induction of apoptosis in human HT-29 cells assessed as CDK2 protein level at 10 uM after 48 hrs by Western blot method relative to beta-actin; assay type: functional
[23] = tested on: HT-29; assay: Anticlonogenic activity against human HT-29 cells assessed as inhibition of colony formation after 4 to 5 days by crystal violet staining-based assay; assay type: functional, cell-based
[24] = tested on: HCT-116; assay: Cell cycle arrest in human HCT116 cells assessed as accumulation at S phase at 10 uM after 48 hrs (reference value: 10.9%); assay type: functional
[25] = tested on: HT-29; assay: Induction of apoptosis in human HT-29 cells assessed as CDK2 protein level at 1 uM after 48 hrs by Western blot method relative to beta-actin; assay type: functional
[26] = tested on: HCT-116; assay: Induction of apoptosis in human HCT116 cells assessed as CDK2 protein level at 2.5 uM after 48 hrs by Western blot method relative to beta-actin; assay type: functional
[27] = tested on: HCT-116; assay: Cytotoxicity against human HCT116 cells assessed as reduction in cell viability by MTT assay; assay type: functional, cell-based
[28] = tested on: HCT-116; assay: Cell cycle arrest in human HCT116 cells assessed as accumulation at G2/M phase at 5 uM after 48 hrs (reference value: 21.5%); assay type: functional
[29] = tested on: HT-29; assay: Induction of apoptosis in human HT-29 cells assessed as caspase-3 protein level at 10 uM after 48 hrs by Western blot method relative to beta-actin; assay type: functional
[30] = tested on: HT-29; assay: Induction of apoptosis in human HT-29 cells assessed as cleaved caspase-3 protein level at 5 uM after 48 hrs by Western blot method relative to caspase-3; assay type: functional
[31] = tested on: HCT-116; assay: Induction of apoptosis in human HCT116 cells after 48 hrs by Annexin-V and dead cell assay; assay type: functional, cell-based
[32] = tested on: HT-29; assay: Cell cycle arrest in human HT-29 cells assessed as accumulation at G0/G1 phase at 1 uM after 48 hrs (reference value: 53.9%); assay type: functional
[33] = tested on: HCT-116; assay: Induction of apoptosis in human HCT116 cells assessed as necrotic cells at 10 uM after 48 hrs by Annexin-V and dead cell assay (reference value: 0.10%); assay type: functional
[34] = tested on: HT-29; assay: Induction of apoptosis in human HT-29 cells assessed as Bcl-2 protein level at 10 uM after 48 hrs by Western blot method relative to beta-actin; assay type: functional
[35] = tested on: HCT-116; assay: Induction of apoptosis in human HCT116 cells assessed as live cells at 1 uM after 48 hrs by Annexin-V and dead cell assay (reference value: 96.75%); assay type: functional
[36] = tested on: HT-29; assay: Induction of apoptosis in human HT-29 cells after 48 hrs by Annexin-V and dead cell assay; assay type: functional, cell-based
[37] = tested on: HT-29; assay: Induction of apoptosis in human HT-29 cells assessed as cyclin E protein level at 10 uM after 48 hrs by Western blot method relative to beta-actin; assay type: functional
[38] = tested on: HCT-116; assay: Induction of apoptosis in human HCT116 cells assessed as p21 protein level at 1 uM after 48 hrs by Western blot method relative to beta-actin; assay type: functional
[39] = tested on: HT-29; assay: Induction of apoptosis in human HT-29 cells assessed as cleaved caspase-3 protein level at 2.5 uM after 48 hrs by Western blot method relative to caspase-3; assay type: functional
[40] = tested on: HCT-116; assay: Induction of apoptosis in human HCT116 cells assessed as live cells at 10 uM after 48 hrs by Annexin-V and dead cell assay (reference value: 96.75%); assay type: functional
[41] = tested on: HT-29; assay: Cell cycle arrest in human HT-29 cells assessed as accumulation at S phase at 5 uM after 48 hrs (reference value: 9.7%); assay type: functional
[42] = tested on: HT-29; assay: Cytotoxicity against human HT-29 cells at 1 to 10 uM after 48 hrs by CytoTox-96 non-radioactive assay; assay type: functional, cell-based

Compound: O=C(OC[C@H]1O[C@@H](OC(=O)c2cc(O)c(O)c(O)c2)[C@H](OC(=O)c2cc(O)c(O)c(O)c2)[C@@H](OC(=O)c2cc(O)c(O)c(O)c2)[C@@H]1OC(=O)c1cc(O)c(O)c(O)c1)c1cc(O)c(O)c(O)c1 [PENTAGALLOYL GLUCOSE]
- Activity [1]: 43.9%
- Activity [2]: 18.1%
- Activity [3]: 18.1%
- fold change (FC) [4]: 1.2
- fold change (FC) [5]: 1.8
- Activity [6]: Dose-dependent effect
- Activity [7]: 37.3%
- fold change (FC) [8]: 488.4
- fold change (FC) [9]: 0.4
- fold change (FC) [10]: 1.8
- fold change (FC) [11]: 4.9
- fold change (FC) [12]: 1.8
- fold change (FC) [13]: 1.7
- Activity [14]: Active
- fold change (FC) [15]: 2.8
- fold change (FC) [16]: 2
- fold change (FC) [17]: 0.7
- Activity [18]: Active
- Activity [19]: 37.5%
- fold change (FC) [20]: 2.5
- fold change (FC) [21]: 0.4
- fold change (FC) [22]: 0.8
- Activity [23]: Dose-dependent effect
- Activity [24]: 11.8%
- fold change (FC) [25]: 0.9
- fold change (FC) [26]: 0.8
- IC50 [27]: 1610 nM
- Activity [28]: 20.9%
- fold change (FC) [29]: 5.8
- fold change (FC) [30]: 7
- Activity [31]: Dose-dependent effect
- Activity [32]: 51.3%
- Activity [33]: 0.25%
- fold change (FC) [34]: 0.3
- Activity [35]: 98.25%
- Activity [36]: Dose-dependent effect
- fold change (FC) [37]: 0.1
- fold change (FC) [38]: 1.3
- fold change (FC) [39]: 6
- Activity [40]: 90.45%
- Activity [41]: 14.3%
- Activity [42]: Active
